Results: patent EP2717965B1, “USE OF EPSILON-POLY-L-LYSINE FOR INCREASING THE BIOAVAILABILITY OF ANTIMICROBIAL PEPTIDES IN THE HUMAN SKIN” (Beiersdorf AG, priority 2011, dated 2017)
Like-named read-outs stand apart in the source and are kept apart here.

Legend:
hBD3 [1] = details: 50 µl of 1% solution in Citratpuffer pH 6 on inner forearm, 4h, rinse with 0,5 ml buffer; control Citratpuffer
Description: 50 µl einer 1%igen wässrigen gepufferten Lösung (Citratpuffer pH 6)von ePL wurden auf die Innenseite des Unterarms von Probanden gegeben. Als Kontrolle diente die Applikation von Citratpuffer ohne ePL. Nach 4h Inkubation wurden die Hautareale mit 0,5 ml Pufferlösung gespült und die Konzentration hBD3 im Eluat mit Hilfe eines ELISAs quantifiziert.
Als Kontrolle diente Citratpuffer, in dem die Wirkstoffe gelöst wurden. (n=8)

hBD3 [2] = experiment: hBD3 secretion of cultured human epidermal keratinocytes, ELISA of cell culture supernatant; type: cell-based, humane epidermale Keratinozyten; details: 24 Stunden incubation
Description: In vitro kultivierte humane epidermale Keratinozyten wurden in Zellkultur Medium mit ε-Poly-L-Lysin in einem Konzentrationsbereich von 0,001-0,1% für 24 Stunden inkubiert. Anschließend wurde die Konzentration an hBD3 im Zellkulturüberstand mittels ELISA quantifiziert.
Abb. 1: Dosisabhängige hBD3 Expression von humanen epidermalen Keratinozyten, die über einen Zeitraum von 24 Stunden mit ePL kultiviert wurden.
Abbildung 1 zeigt die dosisabhängige hBD3 Freisetzung von mit ePL inkubierten Keratinozyten. Kontrollzellen zeigten nur eine geringfüge basale hBD3 Menge.

hBD3 [3] = experiment: hBD3 in forearm skin rinses of volunteers after topical application, ELISA of eluate; type: in vivo, Probanden; details: 50 µl of 1% solution in Citratpuffer pH 6 on inner forearm, 4h, rinse with 0,5 ml buffer; control Citratpuffer
Description: Abb. […] Als Kontrolle wurde Citratpuffer appliziert. (n=7)

NCC(=O)O [Glycin]
hBD3-Steigerung (hBD3 [1]): nur beim peptidisch verknüpften Lysin

Poly[imino[(2S)-2-amino-1-oxo-1,6-hexandiyl]] [ePL]
hBD3 Sekretion (hBD3 [2]; 0,01% und 0,1% in cell culture medium, compared with 0,001%): steigerte nochmals die hBD3 Sekretion deutlich | hBD3 Sekretion der Keratinozyten (hBD3 [2]; 0,001% in cell culture medium, versus control cells): signifikante Erhöhung (p<0,001) | hBD3-Steigerung (hBD3 [3]): gleichermaßen wirksam

NCCCC[C@H](N)C(=O)O [Lysin, L-Lysin]
hBD3-Steigerung (hBD3 [1]): nicht aber bei der freien Aminosäure eine hBD3-Steigerung

alpha-Polylysin
hBD3-Steigerung (hBD3 [3]): gleichermaßen wirksam
